Experimental data taken from patent US20230146795A1, “ENHANCEMENT OF ANTI-TUMOR ACTIVITY OF SHP2 INHIBITOR PYRIMIDINONE IN COMBINATION WITH NOVEL CANCER MEDICINES IN CANCERS” (TAIHO PHARMACEUTICAL CO., LTD., priority 2020, published 2023).

Legend:
Format in all cases: cell-based
MV-4-11 = experiment: Anti-proliferation assay (CellTiter-Glo 2.0), combination index, MV-4-11
Method: (§1) Cell lines were obtained from ATCC or Health Science Research Resources Bank.
(§2) 384 well culture plate (781086, Greiner Bio-One International) was used for cell survival rate measurement assay. Each cell lines were collected by ordinary method, then suspended in indicated medium containing 10% fetal bovine serum in table 3. The number of cells seeded per well was set to 500 cells/20 μL. After incubation at 37° C. for 24 hours under 5% CO2, Compound 1 and additional compound having an antitumor effect or a vehicle (DMSO) was added to each well by using D300e Digital Dispenser (Tecan). The concentration of Compound 1 was set to 10 concentrations. The concentration of each anti-cancer reagents set to 8 concentrations including 0 nM. After adding the medicine to the cells, the cells were further incubated at 37° C. for 3 days under 5% CO2. Cell survival rates were calculated by adding 20 μL of CellTiter-Glo(registered trademark) 2. 0 (Promega) solution to each well, incubating the cells at room temperature for 10 minutes, and then measuring the chemiluminescence intensity of each well using a plate reader (ARVO).
(§3) A combination index (CI) value at each combined concentration of the medicines was determined.

MKN45 = experiment: Anti-proliferation assay (CellTiter-Glo 2.0), combination index, MKN45
Method: as §1
(§4) Each cell lines were collected by ordinary method, then suspended in indicated medium containing 10% fetal bovine serum in table 3. The number of cells seeded per well was set to 500 cells/20 μL. […] The concentration of each anti-cancer reagents set to 8 concentrations including 0 nM. After adding the medicine to the cells, the cells were further incubated at 37° C. for 3 days under 5% CO2. Cell survival rates were calculated by adding 20 μL of CellTiter-Glo(registered trademark) 2. 0 (Promega) solution to each well, incubating the cells at room temperature for 10 minutes, and then measuring the chemiluminescence intensity of each well using a plate reader (ARVO).
as §3

RT4 = experiment: Anti-proliferation assay (CellTiter-Glo 2.0), combination index, RT4
Method: as §1, §4, §3

NCI-H358 = experiment: Anti-proliferation assay (CellTiter-Glo 2.0), combination index, NCI-H358; conditions: for Description (combinatory effect by CI): Compound 1:combination drug molar ratio 1:9
Method: as §1, §4, §3

RMG-I = experiment: Anti-proliferation assay (CellTiter-Glo 2.0), combination index, RMG-I; conditions: for Description (combinatory effect by CI): Compound 1:combination drug molar ratio 1:9
Method: as §1, §2, §3

[1] = Compound 1 41.2 + combination drug 13.7 nmol/L (1:0.3)
[2] = Compound 1 370 + combination drug 123 nmol/L (1:0.3)
[3] = Compound 1 1110 + combination drug 370 nmol/L (1:0.3)
[4] = Compound 1 3330 + combination drug 1110 nmol/L (1:0.3)
[5] = Compound 1 123 + combination drug 10000 nmol/L (1:81)
[6] = Compound 1 13.7 + combination drug 13.7 nmol/L (1:1)
[7] = Compound 1 41.2 + combination drug 41.2 nmol/L (1:1)
[8] = Compound 1 123 + combination drug 123 nmol/L (1:1)
[9] = Compound 1 4.57 + combination drug 370 nmol/L (1:81)
[10] = Compound 1 13.7 + combination drug 1110 nmol/L (1:81)
[11] = Compound 1 41.2 + combination drug 3330 nmol/L (1:81)
[12] = Compound 1 41.2 + combination drug 370 nmol/L (1:9)
[13] = Compound 1 123 + combination drug 1110 nmol/L (1:9)
[14] = Compound 1 370 + combination drug 3330 nmol/L (1:9)
[15] = Compound 1 123 + combination drug 370 nmol/L (1:3)
[16] = Compound 1 370 + combination drug 1110 nmol/L (1:3)
[17] = Compound 1 13.7 + combination drug 123 nmol/L (1:9)
[18] = Compound 1 370 + combination drug 370 nmol/L (1:1)
[19] = Compound 1 1110 + combination drug 1110 nmol/L (1:1)
[20] = Compound 1 3330 + combination drug 3330 nmol/L (1:1)
[21] = Compound 1 10000 + combination drug 10000 nmol/L (1:1)
[22] = Compound 1 13.7 + combination drug 370 nmol/L (1:27)
[23] = Compound 1 41.2 + combination drug 1110 nmol/L (1:27)
[24] = Compound 1 123 + combination drug 3330 nmol/L (1:27)
[25] = Compound 1 370 + combination drug 10000 nmol/L (1:27)
[26] = Compound 1:combination drug molar ratio 1:27
[27] = Compound 1 1110 + combination drug 10000 nmol/L (1:9)

Compound: CNC(=O)c1cc(Oc2ccc(NC(=O)Nc3ccc(Cl)c(C(F)(F)F)c3)cc2)ccn1 [Sorafenib]
- CI (MV-4-11; [1]): 0.116
- Fa (MV-4-11; [1]): 0.9439
- Fa (MV-4-11; Compound 1 123 + combination drug 41.2 nmol/L (1:0.3)): 0.9578
- CI (MV-4-11; [2]): 0.301
- Fa (MV-4-11; [2]): 0.9643
- CI (MV-4-11; [3]): 0.759
- Fa (MV-4-11; [3]): 0.9665
- CI (MV-4-11; [4]): 0.865
- Fa (MV-4-11; [4]): 0.9766

Compound: CCN(CC)CCNC(=O)c1c(C)[nH]c(/C=C2\C(=O)Nc3ccc(F)cc32)c1C [Sunitinib]
- CI (MKN45; [5]): 0.818
- Fa (MKN45; [5]): 0.8052
- CI (MV-4-11; [6]): 0.262
- Fa (MV-4-11; [6]): 0.9463
- CI (MV-4-11; [7]): 0.327
- Fa (MV-4-11; [7]): 0.9651
- CI (MV-4-11; [8]): 0.902
- Fa (MV-4-11; [8]): 0.9666
- CI (RT4; [9]): 0.687
- Fa (RT4; [9]): 0.1808
- CI (RT4; [10]): 0.392
- Fa (RT4; [10]): 0.4883
- CI (RT4; [11]): 0.624
- Fa (RT4; [11]): 0.6270
- Description (combinatory effect by CI) (RT4; Compound 1:combination drug molar ratio 1:81): Synergy (0.3-0.7)
- CI (NCI-H358; [12]): 0.502
- Fa (NCI-H358; [12]): 0.4562
- CI (NCI-H358; [13]): 0.747
- Fa (NCI-H358; [13]): 0.7002
- CI (NCI-H358; [14]): 0.612
- Fa (NCI-H358; [14]): 0.9541
- Description (combinatory effect by CI) (NCI-H358): Synergy (0.3-0.7)

Compound: CC(C)Nc1cc(-c2c[nH]c(C(=O)N[C@H](CO)c3cccc(Cl)c3)c2)c(Cl)cn1 [Ulixertinib]
- CI (MKN45; [15]): 0.483
- Fa (MKN45; [15]): 0.5887
- CI (MKN45; [16]): 0.644
- Fa (MKN45; [16]): 0.7816
- Description (combinatory effect by CI) (MKN45; Compound 1:combination drug molar ratio 1:3): Synergy (0.3-0.7)
- CI (RT4; [17]): 0.759
- Fa (RT4; [17]): 0.1321
- CI (RT4; [12]): 0.310
- Fa (RT4; [12]): 0.3352
- CI (RT4; [13]): 0.330
- Fa (RT4; [13]): 0.4921
- CI (RT4; [14]): 0.622
- Fa (RT4; [14]): 0.5670
- Description (combinatory effect by CI) (RT4; Compound 1:combination drug molar ratio 1:9): Synergy (0.3-0.7)
- CI (NCI-H358; [8]): 0.709
- Fa (NCI-H358; [8]): 0.2823
- CI (NCI-H358; [18]): 0.379
- Fa (NCI-H358; [18]): 0.5072
- CI (NCI-H358; [19]): 0.237
- Fa (NCI-H358; [19]): 0.7490
- CI (NCI-H358; [20]): 0.260
- Fa (NCI-H358; [20]): 0.8778
- CI (NCI-H358; [21]): 0.284
- Fa (NCI-H358; [21]): 0.9536

Compound: COc1cc2c(Nc3ccc(Br)cc3F)ncnc2cc1OCC1CCN(C)CC1 [Vandetanib]
- CI (RMG-I; [12]): 0.428
- Fa (RMG-I; [12]): 0.4951
- CI (RMG-I; [13]): 0.938
- Fa (RMG-I; [13]): 0.5602
- Description (combinatory effect by CI) (RMG-I): Synergy (0.3-0.7)
- CI (MV-4-11; [9]): 0.912
- Fa (MV-4-11; [9]): 0.5454
- CI (MV-4-11; [10]): 0.557
- Fa (MV-4-11; [10]): 0.8322
- CI (MV-4-11; [11]): 0.503
- Fa (MV-4-11; [11]): 0.9448
- CI (MV-4-11; [5]): 0.294
- Fa (MV-4-11; [5]): 0.9916
- CI (RT4; [22]): 0.486
- Fa (RT4; [22]): 0.3118
- CI (RT4; [23]): 0.444
- Fa (RT4; [23]): 0.5143
- CI (RT4; [24]): 0.570
- Fa (RT4; [24]): 0.6645
- CI (RT4; [25]): 0.541
- Fa (RT4; [25]): 0.8261
- Description (combinatory effect by CI) (RT4; [26]): Synergy (0.3-0.7)
- CI (NCI-H358; [12]): 0.322
- Fa (NCI-H358; [12]): 0.2982
- CI (NCI-H358; [13]): 0.300
- Fa (NCI-H358; [13]): 0.5211
- CI (NCI-H358; [14]): 0.589
- Fa (NCI-H358; [14]): 0.6208
- CI (NCI-H358; [27]): 0.733
- Fa (NCI-H358; [27]): 0.8142
- Description (combinatory effect by CI) (NCI-H358): Synergy (0.3-0.7)

Compound: CC1(C)CCC(CN2CCN(c3ccc(C(=O)NS(=O)(=O)c4ccc(NCC5CCOCC5)c([N+](=O)[O-])c4)c(Oc4cnc5[nH]ccc5c4)c3)CC2)=C(c2ccc(Cl)cc2)C1 [Venetoclax]
- CI (RMG-I; [13]): 0.687
- Fa (RMG-I; [13]): 0.4133
- CI (RMG-I; [14]): 0.601
- Fa (RMG-I; [14]): 0.5921
- CI (RMG-I; [27]): 0.668
- Fa (RMG-I; [27]): 0.9240
- Description (combinatory effect by CI) (RMG-I): Synergy (0.3-0.7)
- CI (MV-4-11; [6]): 0.424
- Fa (MV-4-11; [6]): 0.7436
- CI (MV-4-11; [7]): 0.080
- Fa (MV-4-11; [7]): 0.9696
- CI (MV-4-11; [8]): 0.007
- Fa (MV-4-11; [8]): 0.9987
- CI (RT4; [22]): 0.479
- Fa (RT4; [22]): 0.1751
- CI (RT4; [23]): 0.497
- Fa (RT4; [23]): 0.3605
- CI (RT4; [24]): 0.888
- Fa (RT4; [24]): 0.5099
- CI (RT4; [25]): 0.888
- Fa (RT4; [25]): 0.8781
- Description (combinatory effect by CI) (RT4; [26]): Synergy (0.3-0.7)
